Assay results: paper PMC3816974 (Bioorganic & medicinal chemistry, 2013)

System: M. tuberculosis H37Rv
Assay type: cell-based, Mycobacterium tuberculosis
Conditions: for frequency of spontaneous resistance: M. tuberculosis H37Rv, 10× the MIC

| SMILES | resistance range of mutants above the MIC level of the parental strain | frequency of spontaneous resistance | cross-resistance of mutants resistant to 44 and 52 |
| --- | --- | --- | --- |
| COc1ccc(C(=O)Nc2nc(-c3ccccn3)cs2)cc1 [Compound 44] | 2–8 fold | ~ 10^−5 | – |
| O=C(Nc1nc(-c2ccccn2)cs1)c1cccc(Br)c1 [Compound 52] | 2–8 fold | ~ 10^−5 | – |
| CCc1cc(C(N)=S)ccn1 [ethionamide, reference compound] | – | – | not to be cross-resistant |
